# Data reported in patent US10100077B2, “6-aryl-9-glycosylpurines and use thereof” (UNIVERZITA PALACKEHO V OLOMOUCI, priority 2014, dated 2018).
# Tests used:
# [1] = tested on: Normal human dermal fibroblasts (NHDF); test: In vitro UVA photoprotection test (neutral red); format: cell-based; details: UVA 7.5 J/cm^2, 0.9; 1.8; 3.9 a 7.8 μmol/l, 60 minutes pre-incubation
# Source text: (§1) Normal human dermal fibroblasts (NHDF) were used as an in vitro model. Cells were isolated from tissue specimens obtained from healthy patients undergoing plastic surgery at the Department of Plastic and Aesthetic Surgery (University Hospital Olomouc). The use of skin tissue was in accordance with the Ethics Committee of the University Hospital and Faculty of Medicine and Dentistry, Palacký University, Olomouc and all patients signed written informed consent. Fibroblasts were used between the 2nd and 4th passage. For all experiments the fibroblasts were seeded onto 96-well plates at a density of 0.8×10^5 cells/ml (0.2 ml per well) of cultivation medium (DMEM supplemented with foetal calf serum (10%, v/v), penicillin […] and streptomycin (100 U/ml)).
# (§2) Test compounds included 6-(3-methoxybenzylamino)-9-β-D-arabinofuranosylpurine. […] Intensity of UVA or UVB radiation was evaluated before each irradiation by UVA- or UVB-meter. […] After 24 hours (37° C., 5% CO2) cell damage was evaluated by neutral red (NR) incorporation into viable cells. […] After 5 minutes of intensive shaking absorbance was measured at 540 nm. […] Photoprotective effect was evaluated by comparison of experimental data (absorbance) of test compounds with a positive control and a negative control (according to the following equation: […]
# [2] = tested on: Normal human dermal fibroblasts (NHDF); test: In vitro UVB photoprotection test (neutral red); format: cell-based; details: UVB 400 mJ/cm^2, 0.9; 1.8; 3.9 a 7.8 μmol/l, 60 minutes pre-incubation
# Source text: as §1, §2
# [3] = tested on: detached leaf segments of Triticum aestivum cv. Hereward; test: Senescence bioassay on wheat leaf segments (chlorophyll retention); details: chlorophyll retention at maximum effective concentration, 96 h dark
# Description: Seeds of winter wheat, Triticum aestivum cv. Hereward, were washed under running water for 24 hours and then sown on vermiculite soaked with Knop's solution. They were placed in the growth chamber at 25° C. with a 16/8 h light period at 50 μmol·m^−2·s^−1. After 7 days, the first leaf was fully developed and the second leaf had started to grow. A tip section of the first leaf, approximately 35 mm long, was removed from 5 seedlings and trimmed slightly to a combined weight of 100 mg. The basal ends of the five leaf tips were placed in the wells of a microtiter polystyrene plate containing 150 μL, of the tested derivative solution each. The entire plate was inserted into a plastic box lined with paper tissues soaked in distilled water to prevent leaf sections from drying out. After 96 h incubation in the dark at 25° C., the leaves were removed and chlorophyll extracted by heating at 80° C. for 10 min in 5 mL of 80% ethanol (v/v). The sample volume was then restored to 5 mL by the addition of 80% ethanol (v/v). The absorbance of the extract was recorded at 665 nm. In addition, chlorophyll extracts from fresh leaves and leaf tips incubated in deionised water were measured. The results are means of five replicates and the entire test was repeated twice. […] The compounds to be tested were dissolved in dimethylsulfoxide (DMSO) and the solution brought up to 10^−3M with distilled water. This stock solution was further diluted with the respective media used for the biotest to a concentration ranging from 10^−8M to 10^−4M. […] The activity obtained for 10^−4 M of BAP was postulated as 100%.
# [4] = tested on: skin fibroblasts BJ and keratinocytes HaCaT; test: SRB in vitro toxicity test; format: cell-based; details: Homo sapiens, 72 hour treatment, maximal concentration 50 microM
# Summary of the method: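 BJ fibroblasts and HaCaT keratinocytes were exposed for 72 h to sixfold-diluted compound (maximum 50 μM), with DMSO as vehicle. Cells were TCA-fixed and stained with SRB, and absorbance was read at 564 nm. IC50 was calculated from dose-response curves.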
smiles,measurement,setting,value
COc1cccc(CNc2ncnc3c2ncn3[C@@H]2O[C@H](CO)[C@@H](O)[C@@H]2O)c1 [6-(3-methoxybenzylamino)-9-β-D-arabinofuranosylpurine],viability after UVA vs DMSO control (photoprotection),[1],higher viability
same,viability after UVB vs DMSO control (photoprotection),[2],higher viability
same,activity (%) [10^−4 mol · l^−1 BAP = 100%],[3],118 ± 2%
same,IC50,[4],> 50 µM
